Where only a bound is given, the exact number is not on record here.

The target in the assay is Egl nine homolog 1 (Homo sapiens, UniProt Q9GZT9). The experiment in a line: Inhibition of human EGLN1.
Chain of Egl nine homolog 1 (Q9GZT9 whole entry): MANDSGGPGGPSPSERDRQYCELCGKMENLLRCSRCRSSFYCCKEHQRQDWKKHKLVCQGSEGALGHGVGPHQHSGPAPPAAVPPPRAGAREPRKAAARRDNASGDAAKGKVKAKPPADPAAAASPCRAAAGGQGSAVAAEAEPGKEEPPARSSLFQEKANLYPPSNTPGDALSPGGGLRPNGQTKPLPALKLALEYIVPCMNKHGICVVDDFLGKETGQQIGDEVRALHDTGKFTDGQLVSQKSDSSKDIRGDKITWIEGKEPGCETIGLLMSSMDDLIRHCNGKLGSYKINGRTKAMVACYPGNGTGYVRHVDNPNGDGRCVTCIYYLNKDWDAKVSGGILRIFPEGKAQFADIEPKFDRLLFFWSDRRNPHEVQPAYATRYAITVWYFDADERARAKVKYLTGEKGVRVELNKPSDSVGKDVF

In general, IC50 refers to the midpoint of a concentration-inhibition curve. The low end stands for higher potency, the high end for lower potency. Compound `Cc1cccc(-c2ccc3nc(C(=O)NCC(=O)O)cn3c2)c1` registered an IC50 above 100 µM.

(Values after ChEMBL document CHEMBL1139727, “A novel series of imidazo[1,2-a]pyridine derivatives as HIF-1alpha prolyl hydroxylase inhibitors” (Bioorg Med Chem Lett, 2006).)
